# Reference: paper PMC8379256, “A xanthene derivative, DS20060511, attenuates glucose intolerance by inducing skeletal muscle-specific GLUT4 translocation in mice” (Communications Biology, 2021)
# Where “and” joins values, the source holds several entries; their conditions need not be identical. Equal entries are not always repeated.
# Tests used:
# [1] = tested on: human liver microsomal fraction; test: Metabolic stability in human liver microsomes; format: in vitro ADME; conditions: after 1 h incubation, 1 μM
# Procedure: C57BL/6 mice that had been denied access to food overnight received the indicated oral dose of DS20060511, and blood samples were collected from the tail vein at the indicated timepoints. Plasma samples for quantitation of DS20060511 were prepared by centrifugation. Another group of mice received oral administration DS20060511 (30 mg kg^−1) and euthanized 75 min later. The soleus and gastrocnemius muscles, heart, and inguinal WAT were removed and homogenized in water (5 vol.) for quantitation of the drug concentrations. Plasma samples and tissue homogenates were analyzed by LC-MS/MS (Nexera MP System, SHIMADZU, Kyoto, Japan; API4000 System, SCIEX, Framingham, MA). The tissue concentrations of the compound were calculated by assuming the volume of 1 g of tissue is 1 mL. Evaluation of the metabolic stability of the compound to mouse and human cytochrome P450 (CYP) was conducted as follows. […] The results were expressed as the amount of compound remaining (expressed as a percentage), based on the ratio of the relative area to that in the control (without reaction).
# C57BL/6 mice = test: Indirect calorimetry and exercise endurance under stepwise treadmill running; format: in vivo, mouse; conditions: for Fat oxodation, sum over interval / Gluocse oxdation, sum over interval / Fat oxodation / Gluocse oxdation: individual mice 1-7
# Procedure: The mice were acclimatized to the treadmill by allowing them to run at 10 m min^−1 for 10 min on the day before the test. On the day of the test, the mice received oral administration of 30 mg kg^−1 of DS20060511 or vehicle 15 min before they were made to run. The treadmill was started at a velocity of 10 m min^−1, with the speed increased stepwise by 2 m min^−1 every 3 min, to assess the exercise endurance capacity as described previously. Measurements of the oxygen consumption (VO2) and exhaled carbon dioxide (VCO2) under treadmill running were conducted with the ARCO-2000 magnetic-type mass spectrometric calorimeter (ARCO System, Kashiwa, Japan) connected to the treadmill chamber (MB-2000, ARCO System). The RER was calculated as the VCO2/VO2 ratio and the substrate utilization rates were calculated using Frayn’s formula[51]: rate of glucose oxidation = 4.585VCO2 − 3.226VO2; rate of fat oxidation = 1.695VO2 − 1.701VCO2. The exercise endurance capacity under treadmill running was determined by measuring the time from the start to the time until the mice ceased to run because of exhaustion, which was defined as remaining on the shocker plate for more than 10 sec. Immediately after the exercise, the blood glucose and lactate levels were measured using Glutest Every and Lactate Pro2 (ARKRAY, Kyoto, Japan), respectively, in blood samples collected from the tail vein.
# [2] = 30 mg kg−1 po vs vehicle, treadmill running
compound,measurement,setting,value
COc1ccc2c(C)c(C(=O)O)ccc2c1C1C2=C(CC(C)(C)CC2=O)OC2=C1C(=O)CC(C)(C)C2 [DS20060511],compound remaining,[1],79%
same,blood lactate levels after exercise,C57BL/6 mice; 30 mg kg−1 po vs vehicle,comparable between the two groups
same,exercise endurance capacity,"C57BL/6 mice; 30 mg kg−1 po vs vehicle, stepwise treadmill",comparable between the two groups
same,estimated glucose oxidation,C57BL/6 mice; [2],significantly higher
same,fat oxidation,C57BL/6 mice; [2],significantly lower
same,respiratory exchange ratio (RER),C57BL/6 mice; [2],relatively higher
same,blood glucose levels after exercise,"C57BL/6 mice; 30 mg kg−1 po, after treadmill running",decreased significantly after exercise
same,"Fat oxodation, sum over interval","C57BL/6 mice; 30 mg/kg, 0-10 min",427.8 mg/min/kg and 293.6 mg/min/kg and 420.7 mg/min/kg and 305.9 mg/min/kg and 318.6 mg/min/kg and 347.3 mg/min/kg and 349.7 mg/min/kg
same,"Gluocse oxdation, sum over interval","C57BL/6 mice; 30 mg/kg, 0-10 min",257.7 mg/min/kg and 558.0 mg/min/kg and 414.2 mg/min/kg and 313.5 mg/min/kg and 385.3 mg/min/kg and 424.4 mg/min/kg and 413.9 mg/min/kg
same,"Fat oxodation, sum over interval","C57BL/6 mice; 30 mg/kg, 10-20 min",395.5 mg/min/kg and 242.6 mg/min/kg and 385.0 mg/min/kg and 272.2 mg/min/kg and 293.7 mg/min/kg and 348.5 mg/min/kg and 252.4 mg/min/kg
same,"Gluocse oxdation, sum over interval","C57BL/6 mice; 30 mg/kg, 10-20 min",391.9 mg/min/kg and 729.7 mg/min/kg and 425.7 mg/min/kg and 359.9 mg/min/kg and 949.6 mg/min/kg and 631.1 mg/min/kg and 663.2 mg/min/kg
same,"Fat oxodation, sum over interval","C57BL/6 mice; 30 mg/kg, 20-30 min",322.9 mg/min/kg and 234.0 mg/min/kg and 346.7 mg/min/kg and 272.4 mg/min/kg and 262.3 mg/min/kg and 313.5 mg/min/kg and 371.5 mg/min/kg
same,"Gluocse oxdation, sum over interval","C57BL/6 mice; 30 mg/kg, 20-30 min",572.7 mg/min/kg and 770.3 mg/min/kg and 804.1 mg/min/kg and 468.4 mg/min/kg and 807.5 mg/min/kg and 860.4 mg/min/kg and 944.3 mg/min/kg
same,Fat oxodation,"C57BL/6 mice; 30 mg/kg, 2 min",49.1 mg/min/kg and 32.5 mg/min/kg and 45.5 mg/min/kg and 29.3 mg/min/kg and 25.5 mg/min/kg and 31.7 mg/min/kg and 38.3 mg/min/kg
same,Gluocse oxdation,"C57BL/6 mice; 30 mg/kg, 2 min",22.8 mg/min/kg and 54.5 mg/min/kg and 47.8 mg/min/kg and 35.8 mg/min/kg and 26.2 mg/min/kg and 31.5 mg/min/kg and 33.5 mg/min/kg
same,Fat oxodation,"C57BL/6 mice; 30 mg/kg, 3 min",47.1 mg/min/kg and 30.9 mg/min/kg and 42.8 mg/min/kg and 30.0 mg/min/kg (2×) and 34.1 mg/min/kg and 36.3 mg/min/kg
same,Gluocse oxdation,"C57BL/6 mice; 30 mg/kg, 3 min",23.3 mg/min/kg and 55.7 mg/min/kg and 37.4 mg/min/kg and 36.0 mg/min/kg and 29.4 mg/min/kg and 34.4 mg/min/kg and 37.0 mg/min/kg
same,Fat oxodation,"C57BL/6 mice; 30 mg/kg, 4 min",45.2 mg/min/kg and 28.8 mg/min/kg and 42.6 mg/min/kg and 34.0 mg/min/kg and 60.9 mg/min/kg and 33.7 mg/min/kg and 35.2 mg/min/kg
same,Gluocse oxdation,"C57BL/6 mice; 30 mg/kg, 4 min",24.4 mg/min/kg and 56.1 mg/min/kg and 36.3 mg/min/kg and 34.1 mg/min/kg and 30.0 mg/min/kg and 35.7 mg/min/kg and 43.6 mg/min/kg
same,Fat oxodation,"C57BL/6 mice; 30 mg/kg, 5 min",42.0 mg/min/kg (2×) and 29.8 mg/min/kg and 30.0 mg/min/kg and 28.6 mg/min/kg and 36.6 mg/min/kg and 31.5 mg/min/kg
same,Gluocse oxdation,"C57BL/6 mice; 30 mg/kg, 5 min",25.9 mg/min/kg and 58.5 mg/min/kg and 35.2 mg/min/kg and 29.7 mg/min/kg and 36.7 mg/min/kg and 43.4 mg/min/kg and 40.9 mg/min/kg
same,Fat oxodation,"C57BL/6 mice; 30 mg/kg, 6 min",40.6 mg/min/kg and 28.1 mg/min/kg (2×) and 39.9 mg/min/kg and 29.8 mg/min/kg and 36.7 mg/min/kg and 34.9 mg/min/kg
same,Gluocse oxdation,"C57BL/6 mice; 30 mg/kg, 6 min",27.6 mg/min/kg and 62.3 mg/min/kg and 41.7 mg/min/kg and 27.0 mg/min/kg and 29.5 mg/min/kg and 41.2 mg/min/kg and 41.6 mg/min/kg
same,Fat oxodation,"C57BL/6 mice; 30 mg/kg, 7 min",44.6 mg/min/kg and 27.7 mg/min/kg and 40.8 mg/min/kg and 31.0 mg/min/kg and 29.7 mg/min/kg and 36.4 mg/min/kg and 33.0 mg/min/kg
same,Gluocse oxdation,"C57BL/6 mice; 30 mg/kg, 7 min",25.8 mg/min/kg and 57.6 mg/min/kg and 41.7 mg/min/kg and 27.6 mg/min/kg and 31.8 mg/min/kg and 41.2 mg/min/kg and 41.5 mg/min/kg
same,Fat oxodation,"C57BL/6 mice; 30 mg/kg, 8 min",40.5 mg/min/kg and 29.5 mg/min/kg and 42.0 mg/min/kg and 36.5 mg/min/kg and 31.2 mg/min/kg and 35.1 mg/min/kg and 53.1 mg/min/kg
same,Gluocse oxdation,"C57BL/6 mice; 30 mg/kg, 8 min",25.7 mg/min/kg and 46.1 mg/min/kg and 38.7 mg/min/kg and 30.3 mg/min/kg and 43.2 mg/min/kg and 42.8 mg/min/kg and 44.9 mg/min/kg
same,Fat oxodation,"C57BL/6 mice; 30 mg/kg, 9 min",38.5 mg/min/kg (2×) and 26.8 mg/min/kg and 37.4 mg/min/kg and 31.8 mg/min/kg and 32.4 mg/min/kg and 27.0 mg/min/kg
same,Gluocse oxdation,"C57BL/6 mice; 30 mg/kg, 9 min",33.9 mg/min/kg and 53.4 mg/min/kg and 38.5 mg/min/kg and 22.6 mg/min/kg and 54.7 mg/min/kg and 55.4 mg/min/kg and 48.5 mg/min/kg
same,Fat oxodation,"C57BL/6 mice; 30 mg/kg, 10 min",34.8 mg/min/kg and 27.2 mg/min/kg and 41.0 mg/min/kg and 29.8 mg/min/kg and 30.4 mg/min/kg and 34.2 mg/min/kg and 23.3 mg/min/kg
same,Gluocse oxdation,"C57BL/6 mice; 30 mg/kg, 10 min",30.0 mg/min/kg and 56.7 mg/min/kg and 39.2 mg/min/kg and 35.9 mg/min/kg and 69.2 mg/min/kg and 58.5 mg/min/kg and 43.5 mg/min/kg
same,Fat oxodation,"C57BL/6 mice; 30 mg/kg, 11 min",31.8 mg/min/kg and 26.7 mg/min/kg and 43.5 mg/min/kg and 30.9 mg/min/kg and 23.0 mg/min/kg and 34.9 mg/min/kg and 24.3 mg/min/kg
same,Gluocse oxdation,"C57BL/6 mice; 30 mg/kg, 11 min",26.2 mg/min/kg and 54.7 mg/min/kg and 51.9 mg/min/kg and 29.4 mg/min/kg and 70.2 mg/min/kg and 68.8 mg/min/kg and 48.6 mg/min/kg
same,Fat oxodation,"C57BL/6 mice; 30 mg/kg, 12 min",38.6 mg/min/kg and 27.7 mg/min/kg and 39.9 mg/min/kg and 32.1 mg/min/kg and 28.8 mg/min/kg and 35.4 mg/min/kg and 26.2 mg/min/kg
same,Gluocse oxdation,"C57BL/6 mice; 30 mg/kg, 12 min",31.9 mg/min/kg and 64.6 mg/min/kg and 37.7 mg/min/kg and 26.9 mg/min/kg and 70.4 mg/min/kg and 57.6 mg/min/kg and 47.4 mg/min/kg
same,Fat oxodation,"C57BL/6 mice; 30 mg/kg, 13 min",43.1 mg/min/kg and 20.9 mg/min/kg and 41.6 mg/min/kg and 25.9 mg/min/kg and 29.8 mg/min/kg and 35.1 mg/min/kg and 26.2 mg/min/kg
same,Gluocse oxdation,"C57BL/6 mice; 30 mg/kg, 13 min",26.0 mg/min/kg and 67.8 mg/min/kg and 36.1 mg/min/kg and 27.0 mg/min/kg and 75.8 mg/min/kg and 55.4 mg/min/kg and 71.1 mg/min/kg
same,Fat oxodation,"C57BL/6 mice; 30 mg/kg, 14 min",40.8 mg/min/kg and 24.1 mg/min/kg and 37.9 mg/min/kg and 28.8 mg/min/kg and 31.7 mg/min/kg and 36.1 mg/min/kg and 24.4 mg/min/kg
same,Gluocse oxdation,"C57BL/6 mice; 30 mg/kg, 14 min",35.1 mg/min/kg and 58.5 mg/min/kg and 33.2 mg/min/kg and 25.3 mg/min/kg and 81.8 mg/min/kg and 57.9 mg/min/kg and 62.6 mg/min/kg
same,Fat oxodation,"C57BL/6 mice; 30 mg/kg, 15 min",37.9 mg/min/kg and 23.3 mg/min/kg and 38.6 mg/min/kg and 27.4 mg/min/kg and 30.7 mg/min/kg and 40.7 mg/min/kg and 24.3 mg/min/kg
same,Gluocse oxdation,"C57BL/6 mice; 30 mg/kg, 15 min",36.9 mg/min/kg and 60.6 mg/min/kg and 34.7 mg/min/kg and 16.1 mg/min/kg and 95.7 mg/min/kg and 52.2 mg/min/kg and 66.3 mg/min/kg
same,Fat oxodation,"C57BL/6 mice; 30 mg/kg, 16 min",43.4 mg/min/kg and 24.7 mg/min/kg
same,Gluocse oxdation,"C57BL/6 mice; 30 mg/kg, 16 min",35.4 mg/min/kg and 77.5 mg/min/kg
same,CO2 Production (VCO2),"C57BL/6 mice; DS20060511 30 mg/kg, 2 min, individual mice 1-7, Fig. 5a, 30 mg/kg",92.8 mL/min/kg and 70.8 mL/min/kg and 81.2 mL/min/kg and 81.9 mL/min/kg and 71.5 mL/min/kg and 71.3 mL/min/kg and 73.6 mL/min/kg
